This note sets out measurements from patent publication US4835185A, “Immunomodulator for improving commercial performance of domestic animals” (Iowa State University Research Foundation, Inc., priority 1987, dated 1989).

Series [1] relates to lymphocytes. Nature of the series: Study of Immune Function: lymphocyte blastogenesis, sheep (experiments 1 and 2). In kind it is cell-based, lambs (sheep).
Experimental: A study was conducted to determine if KIC administration can alter white blood cell function, specifically T lymphocyte function, in growing sheep and cattle. Eighteen medium-framed crossbred male lambs were used in experiment 1. Lambs were randomly assigned to either a control diet (n=10) or a diet supplemented with 1% KIC (n=8). Animals were fed ad libitum in individual cages. At 100 and 108 days of treatment, 50-ml blood samples were collected for lymphocyte and neutrophil function tests.
In experiment 2, 19 intact crossbred male lambs were randomly assigned to either a saline treatment group (n=9) or a KIC treatment group (n=10). Control lambs were injected with 50 ml of a saline solution, and KIC treated lambs were injected with 50 ml of a 5% solution of KIC (sodium salt) daily (~2.5 g KIC/day). All injections were made intraperitoneally in the right posterior abdominal region after disinfection of the area. At day 60 and day 66 of treatment, blood was collected for lymphocyte and neutrophil function tests.
Sheep in experiments 1 and 2 were fed diets based on a mixture of 48% corn, 5% molasses, 20% alfalfa meal, 0.8% limestone, 0.6% salt-mineral-vitamin mix and ~25% of a protein supplement (either soybean meal, corn gluten meal, or corn gluten feed). The diets were isonitrogenous and analyzed to be ~20% crude protein and 89% dry matter. The KIC diet consisted of the basal diet to which was added 1% calcium-KIC, whereas the control diet was the basal diet plus 0.25% calcium carbonate.
Blood was collected by jugular venapuncture into acid-citrate-dextrose anticoagulant. Lymphocytes and neutrophils were isolated, and lymphocyte blastogenesis and neutrophil function evaluated. KIC was obtained from SOBAC, Paris, France. […] Each experiment was statistically analyzed by analysis of variance. In sheep experiments, individual animals were the experimental units, whereas pen means were analyzed in the cattle experiment.
^1 Background (BKG), phytohemagglutininstimulated (PHA), concanavalin
Astimulated (ConA), and pokeweed mitogenstimulated (PWM) blastogenesis
were determined by measuring the incorporation ^3 H thymidine into
Series [2] in a line: Feedlot steers: death, sickness, condemned livers. In kind it is in vivo, steers (cattle). The source says:
Seventy-two medium-frame steers, with an average weight of 578 lbs., were allotted to 12 pens of 6 animals each. A common basal diet was fed ad libitum to all cattle. This consisted of 48.9% cracked corn, 24.4% ground corn cobs, 17.8% expeller Soybean meal, 7.0% molasses (liquid), 1.3% limestone, 0.25% dicalcium phosphate, 2% salt, 0.02% trace mineral premix, and 0.1% vitamin A premix for the first 58 days of the experiment, and was changed to 54.3% cracked corn and 12.8% expeller soybean meal for the remaining 103 days of the experiment. Three pens were assigned to each treatment. The treatments consisted of four levels of Ca-KIC in a pelleted supplement: 0%, 0.02%, 0.07%, and 0.20% of the basal diet (0.05% control pellets, 0.04% KIC pellets, 0.14% KIC pellets, and 0.40% KIC pellets). The pellets were preweighted and top-dressed on the basal diet twice daily. After 58 days, the cattle on the 0.20% KIC were removed from the experiment. The cattle were not implanted with a growth promotant nor were ionophores included in the diet. The cattle were placed in the feedlot and fed a growing ration for 5 weeks prior to the start of the experiment. The cattle were weighed on 2 consecutive days at the beginning and end of the experiment, and every 14 days during the trial. […] Loin eye area and fat thickness over the loin were measured on each carcass. […]

The test system of series [3] is cortisol in plasma. Nature of the series: Lamb trials: plasma cortisol. Type of series: in vivo, lambs (sheep). Conditions: * p<.05. The text has this: The lambs used in Trial 1 consisted of medium-frame crossbred wethers and ewes weighing 26 to 31 kg. The lambs used in Trial 2 consisted of medium-framced crossbred rams weighing 18 to 25 kg. Each animal was raised as a single. The lambs were housed in a temperature controlled room in individual pens with nipple waterers. When received, the lamps were vaccinated for enterotoxemia. They were allowed to adjust to the pens and the environment for 10 days. One day before the trial began, the lambs were sheared and placed on their respective dietary treatments. The lamps were allotted blocking by weight and sex into two dietary treatment groups. Growth and feed consumption were measured bi-weekly. All lamb weights were taken after a 12 to 16 hour fast. The animals were slaughtered at 50 kg in the Iowa State University Meat laboratory facilities at Ames, Iowa. At slaughter, the lamb's internal organs and wool were weighed and sampled, loin eye area and back fat measured, and carcasses separated into fat, lean, and bone.
The SMB (soybean meal-containing) and the CGM (corn-gluten-containing) diets (compositions given in Table A) were fed twice per day in quantities ensuring that feed was before the lambs at all times. The diets were calculated to be equivalent to each other with respect to metabolizable protein, ether extract, fiber, and minerals with the exception of calcium and phosphorus. […] The CGM diet was calculated to contain slightly more energy (TDN 81.7 vs. 79.0, NEm 1.88 v. 1.86, Neg. 1.23 vs. 1.22). […] The soybean meal ingredient contained about 3.5 wt % leucine, while the corn gluten meal ingredient contained about 15 wt % leucine. The CGM diet was therefore higher in leucine than the SBM diet, containing an estimated 16 wt % leucine as compared with an estimated 8 wt % leucine based on total crude protein in the diet.
^(7) Amount of cortisol in plasma (ng/ml).

Series [4] deals with plasma cortisol. The experiment in a line: Plasma cortisol in pigs after test meals. Type of series: in vivo. The protocol:
To determine if KIC could acutely alter cortisol concentrations, young pigs were fed meals supplemented with leucine or KIC and plasma cortisol was measured.
In experiment 1, sixteen female pigs weighing 20-30 kg were used. Seven days before study, catheters were surgically placed in the right atria for blood sampling. Animals were housed in individual cages during the recovery period and had free access to water. Preceding the experiment, animals were fed twice daily a basal diet (2% of body weight per feeding). The basal diet consisted of a corn-soybean mix, adequate in all minerals and vitamins and containing approximately 14% crude protein. Test meals were formulated by additions to a basal diet. Five animals received the basal diet (control); five animals received the leucine meal, which had 2% leucine added to the basal diet; and six animals received the KIC diet, which had 2% KIC (sodium salt equivalent to 1.7% free acid) added to the basel diet. Studies were begun between 0800 and 0900 h after a 24-hr fast. Basal blood samples were taken at -20, -10 and -5 min. Animals were then offered 100 g of their respective test meal (time 0). Pigs were included in the study only if they consumed the entire meal in the first 20 min. […] Plasma was separated, Trasylol (FBA Pharmaceuticals, New York, NY) added (50 ul/ml), and plasma stored at -70 C. until analyzed.
Cortisol was measured by coated tube kits (Gammacoat, Travenol-Genetech Diagnostics, Cambridge, MA). Leucine and KIC were measured by high pressure liquid chromatography. Crystalline leucine was obtained from Sigma Chemical (St. Louis, MO) and KIC-sodium was obtained from SOBAC (Paris, France). Statistical analysis of the individual pig responses was conducted on mean plasma concentrations before the meal (-20 to 0 min) and after the meal (120 to 240 min). When the overall treatment F-value was significant, differences between individual treatments were determined using the pooled SEM and a T-test.

Take `CC(C)CC(=O)C(=O)O` [KIC, alpha-ketoisocaproate]: the “BKG: background blastogenesis” value in series [1] (Exp. 1, oral uncoated KIC 1% (control 466), p<.008) was 852 Counts/min per 2 × 10^5 cells; in series [1] (Exp. 2, IP injected KIC (saline 752), p<.10), 947 Counts/min per 2 × 10^5 cells. Further, the “PHA: phytohemagglutinin-stimulated blastogenesis” value in series [1] (Exp. 1, oral uncoated KIC 1% (control 6100), p<.003) was 16800 Counts/min per 2 × 10^5 cells; in series [1] (Exp. 2, IP injected KIC (saline 8500), p<.09) it was 12600 Counts/min per 2 × 10^5 cells. The “PWM: pokeweed mitogen-stimulated blastogenesis” value in series [1] (Exp. 1, oral uncoated KIC 1% (control 19400), p<.77) was 17300 Counts/min per 2 × 10^5 cells; in series [1] (Exp. 2, IP injected KIC (saline 21600), p<.72) it was 29400 Counts/min per 2 × 10^5 cells. Also, the “ConA: concanavalin A-stimulated blastogenesis” value in series [1] (Exp. 1, oral uncoated KIC 1% (control 41100), p<.81) is given as 44700 Counts/min per 2 × 10^5 cells; in series [1] (Exp. 2, IP injected KIC (saline 31200), p<.87), 33500 Counts/min per 2 × 10^5 cells. Also, the “increase of PHA stimulation” value in series [1] (experiment 1, sheep, oral 1% KIC) worked out at 280%; in series [1] (experiment 2, sheep, IP), 150%. In addition, in series [2] (KIC-treated groups (control: one died, one treated)), the “animals that died or were treated for sickness” value was “no animals”. Further, in series [2] (bovine, in vivo), the condemned liver entry was “one”. Besides, the “CORTISOL: amount of cortisol in plasma” value in series [3] (Trial 1, CGM diet, 1% KIC (0%: 1.04)) was “.65 ng/mL”; in series [3] (Trial 1, SBM diet, 1% KIC (0%: .99)) it was “.83 ng/mL”; in series [3] (Trial 2, CGM diet, 1% KIC (0%: 3.77)) it was 2.43 ng/mL; in series [3] (Trial 2, SBM diet, 1% KIC (0%: 2.70)), 2.25 ng/mL. Moreover, the “decrease in cortisol concentration” value in series [4] (2% KIC, by 240-300 minutes after the meal, p<0.01) worked out at 40%. The “Plasma cortisol, Change” value in series [4] (2% in meal, control -0.09) was -1.99 µg/dL. Also, the “Plasma cortisol, Post” value in series [4] (2% in meal, pre: leucine 2.8, KIC 4.7, pooled SEM 0.49) amounted to 2.9 µg/dL.
